Tests used:
[1] = system: carrageenin-induced paw oedema; assay: carrageenin-induced paw oedema of the rat; format: in vivo, rat (male Sprague-Dawley); conditions: for oedema inhibition: 0.3 mg./kg. per os, paw volume after 3 hours p.a., FIG. 4
Description: To male Sprague-Dawley rats, each with a body weight of 120 to 150 g., were administered per os with a stomach probe the test substances (0.3 mg./kg. body weight). Immediately thereafter, into the left rear paw was injected subplantary 0.1 ml. of a.1% carrageenin solution in order to induce oedema. After 3 hours p.a., the paw volumes were determined by means of a plethysmometer (modified method according to Hofrichter).

gastro-intestinal mucosa = assay: gastrointestinal toxicity in the rat (gastric ulcer index, intestinal ulcer); format: in vivo
Description: Each of the test groups were sacrificed after 24 hours, the stomach and intestines were removed and the stomach opened and cleaned with salt solution. The number of ulcerations multiplied with the diameter thereof in mm. is given as the "gastric ulcer index". The unopened small intestine was investigated for white and brown color changes. The corresponding sections were cut out and the weight thereof in comparison with the total weight plotted in % as "intestinal ulcer". The results are significant in the t-test in comparison with the control.

[2] = system: interleukin 1-induced pain; assay: interleukin 1-induced pain test in rats; format: in vivo, rat; conditions: FIG. 2
Text: (§1) This unexpected result was verified by investigations in two animal models (mouse and rat).
(§2) FIGS. 1-4 are graphs of tests in rats for cramp pain, interleukin-1-inducedpain, prostaglandin production and carrageenin-induced paw oedema for the R(-) and S(+) enantiomers of flurbiprofen, […]

cramp pain = cramp pain test in mice; format: in vivo, mouse; conditions: FIG. 1
Text: as §1, §2

[3] = set-up: species or system mouse and rat; conditions: in vivo
Text: as §1

post-episiotomy pain = conditions: half dosage; A. Sunshine et al., Clin. Pharmacol Ther. 1987; cited from earlier work
[4] = system: macrophages (peritoneum of the mouse); assay: inhibition of prostaglandin liberation on macrophages (peritoneum of the mouse); format: cell-based
Description: Furthermore, contrary to the published state of knowledge (v. supra), S(+)-flurbiprofen in the case of administration after episiotomy is preferably effective antiphlogistically and not preferably analgesically. This further surprising test result was tested on two inflammation models selected independently of one another.

| SMILES | oedema inhibition [1] | toxicity on the gastrointestinal tract, compared with the racemate or the S(+)-enantiomer (gastro-intestinal mucosa; summary statement) | analgesic effectiveness in the interleukin 1-induced pain test, R- versus S-enantiomer [2] | analgesic effectiveness in the cramp pain test, R- versus S-enantiomer (cramp pain) | inversion after administration [3] | inflammation-inhibiting action in carrageenin paw oedema, compared with the R(-)-form ([1]; rat, FIGS. 3 and 4) | damage of the gastro-intestinal mucosa (gastro-intestinal mucosa; rat, in vivo) | analgesic effectiveness compared with the racemate (post-episiotomy pain) | inhibition of the liberation of prostaglandin, compared with the R(-)-form [4] |
| --- | --- | --- | --- | --- | --- | --- | --- | --- | --- |
| C[C@@H](C(=O)O)c1ccc(-c2ccccc2)c(F)c1 [R(-)-flurbiprofen] | 18% | lower grade toxicity on the gastrointestinal tract than the racemate or the S(+)-enantiomer | equal or even more effective by about one third to a half | equal or even more effective by about one third to a half | no or only a very small inversion | – | – | – | – |
| C[C@H](C(=O)O)c1ccc(-c2ccccc2)c(F)c1 [S(+)-flurbiprofen] | 64% | – | – | – | no or only a very small inversion | superior in its inflammation-inhibiting action to the R(-)-form | only S(+)-flurbiprofen caused damage | already more effective at half dosage | inhibits the liberation of prostaglandin more markedly than the R(-)-form |

Reference: patent publication US5206029A, “Medicament and its production and use in the treatment of pain, inflammation and fever in man and animals” (PAZ Arzneimittel-Entwicklungsgesellschaft mbH, priority 1990, dated 1993)
